Patent publication US5484801A, “Pharmaceutical composition for inhibiting HIV protease” (Abbott Laboratories, priority 1995, dated 1996)
“Also recorded” adds a separate entry of the source.

Key:
[1] = Oral bioavailability in dogs, Protocol A (solid dosage forms); assay type: in vivo, beagle dogs; conditions: dog, plasma; unformulated solid in a capsule dosage form, 5 mg/kg oral dose in dogs
Method: Each dog received a single solid dosage form corresponding to a 5 mg/kg dose of the drug.

HIV-1 protease = HIV-1 protease (HIV-1 M:B_HXB2R, UniProt P04585); assay type: biochemical
HIV-2 protease = assay: Inhibition of HIV-2 protease; assay type: biochemical; conditions: statement in words

SMILES | bioavailability [1] | inhibition of HIV-1 protease (HIV-1 protease) | inhibition of HIV-2 protease (HIV-2 protease) | inhibition of HIV-2 protease (HIV-2 protease; listed as formula II)
CC(C)c1nc(CN(C)C(=O)N[C@H](C(=O)N[C@@H](Cc2ccccc2)C[C@H](O)[C@H](Cc2ccccc2)NC(=O)OCc2cncs2)C(C)C)cs1 [Compound III, (2S,3S,5S)-5-(N-(N-((N-Methyl-N-((2-isopropyl-4-thiazolyl)methyl)-amino)carbonyl)valinyl)amino)-2-(N-((5-thiazolyl)methoxycarbonyl)amino)-1,6-diphenyl-3-hydroxyhexane] | < 2% | inhibitors | inhibitors | 
CC(C)c1nc(CN(C)C(=O)NC(C(=O)NC(Cc2ccccc2)CC(O)C(Cc2ccccc2)NC(=O)OCc2cncs2)C(C)C)cs1 (stereo not drawn) [Compound II] |  | especially effective; also recorded: inhibitors | inhibitors | especially effective
